# Measured values as given in ChEMBL document CHEMBL3352523, “Synthesis and biological evaluation of podophyllotoxin congeners as tubulin polymerization inhibitors” (Bioorg Med Chem, 2014).
# Active and inactive are the calls of the source. The calls are words filed in the database; no cut-off is given here.
# Columns and labels:
# [1] = (§1) Antiproliferative activity against human MIAPaCa2 cells assessed as growth inhibition after 48 hrs by SRB assay; format: functional; conditions: MIA PaCa-2, 48 h
# [2] = test system: MCF7; assay: Antiproliferative activity against human MCF7 cells assessed as growth inhibition after 48 hrs by SRB assay; format: functional; conditions: MCF7, 48 h
# [3] = test system: HeLa; assay: Antiproliferative activity against human HeLa cells assessed as growth inhibition after 48 hrs by SRB assay; format: functional
# [4] = test system: HeLa; assay: Induction of microtubule depolymerization in human HeLa cells at 5 uM after 24 hrs by DAPI staining; format: cell-based
# [5] = test system: HeLa; assay: Antimitotic activity against human HeLa cells assessed as accumulation at G2/M phase at 5 uM after 24 hrs by PI staining based flow cytometry (reference value: 18.35%); format: functional
# [6] = molecular target: Tubulin (Bos taurus, UniProt Q6B856+Q862L2+Q862F3); assay: Inhibition of bovine brain tubulin polymerization by fluorescence analysis
# [7] = test system: HeLa; assay: Induction of microtubule destabilization in human HeLa cells at 5 uM after 24 hrs by immunoblot analysis; format: cell-based
# [8] = test system: MIA PaCa-2; assay: as §1; format: functional
Compound,GI50 [1],GI50 [2],GI50 [3],Activity [4],Activity [5],IC50 [6],Activity [7],GI50 [8]
COC(=O)[C@H]1C(c2nc3cc(C(F)(F)F)cc(Br)c3[nH]2)=Cc2cc3c(cc2[C@H]1c1cc(OC)c(OC)c(OC)c1)OCO3,3100 nM,2100 nM,6400 nM,–,–,–,–,–
COC(=O)[C@H]1C(c2nc3cc(C)c(C)cc3[nH]2)=Cc2cc3c(cc2[C@H]1c1cc(OC)c(OC)c(OC)c1)OCO3,1500 nM,160 nM,3600 nM,–,–,–,–,–
COC(=O)[C@H]1C(c2nc3ccc(OC)cc3[nH]2)=Cc2cc3c(cc2[C@H]1c1cc(OC)c(OC)c(OC)c1)OCO3,1600 nM,2100 nM,1040 nM,Active,68.91%,910 nM,Active,–
COC(=O)[C@H]1C(c2nc3ccc(F)cc3[nH]2)=Cc2cc3c(cc2[C@H]1c1cc(OC)c(OC)c(OC)c1)OCO3,3900 nM,20 nM,4300 nM,–,–,–,–,–
COC(=O)[C@H]1C(c2nc3cc4ccccc4cc3[nH]2)=Cc2cc3c(cc2[C@H]1c1cc(OC)c(OC)c(OC)c1)OCO3,2560 nM,1200 nM,3800 nM,–,–,–,–,–
COc1cc([C@@H]2c3cc4c(cc3[C@@H](O[C@@H]3O[C@@H]5CO[C@@H](C)O[C@H]5[C@H](O)[C@H]3O)[C@H]3COC(=O)[C@H]23)OCO4)cc(OC)c1O [ETOPOSIDE],1100 nM,250 nM,620 nM,–,–,–,–,–
COc1cc([C@@H]2c3cc4c(cc3[C@H](O)[C@H]3COC(=O)[C@H]23)OCO4)cc(OC)c1OC [PODOFILOX],510 nM,310 nM,740 nM,–,–,–,–,–
COC(=O)[C@H]1C(c2nc3ccccc3[nH]2)=Cc2cc3c(cc2[C@H]1c1cc(OC)c(OC)c(OC)c1)OCO3,1200 nM,200 nM,200 nM,–,56.05%,1290 nM,–,–
COC(=O)[C@H]1C(C=O)=Cc2cc3c(cc2[C@H]1c1cc(OC)c(OC)c(OC)c1)OCO3,730 nM,910 nM,690 nM,–,–,–,–,–
COC(=O)[C@H]1C(c2nc3ccc(F)c(Cl)c3[nH]2)=Cc2cc3c(cc2[C@H]1c1cc(OC)c(OC)c(OC)c1)OCO3,–,2300 nM,24200 nM,–,–,–,–,inactive
COC(=O)[C@H]1C(c2nc3cc(Cl)c(Cl)cc3[nH]2)=Cc2cc3c(cc2[C@H]1c1cc(OC)c(OC)c(OC)c1)OCO3,3200 nM,580 nM,19700 nM,–,–,–,–,–
COC(=O)[C@H]1C(c2nc3ccc(C(F)(F)F)cc3[nH]2)=Cc2cc3c(cc2[C@H]1c1cc(OC)c(OC)c(OC)c1)OCO3,–,4800 nM,5080 nM,–,–,–,–,inactive
COC(=O)[C@H]1C(c2nc3ccc(Cl)cc3[nH]2)=Cc2cc3c(cc2[C@H]1c1cc(OC)c(OC)c(OC)c1)OCO3,1300 nM,2090 nM,2160 nM,–,–,–,–,–
COC(=O)Nc1nc2cc(C(=O)c3cccs3)ccc2[nH]1 [NOCODAZOLE],950 nM,940 nM,810 nM,–,–,–,–,–
COC(=O)[C@H]1C(c2nc3ccc(C)cc3[nH]2)=Cc2cc3c(cc2[C@H]1c1cc(OC)c(OC)c(OC)c1)OCO3,18100 nM,3070 nM,2800 nM,–,–,–,–,–
COC(=O)[C@H]1C(c2nc3ccc(Br)cc3[nH]2)=Cc2cc3c(cc2[C@H]1c1cc(OC)c(OC)c(OC)c1)OCO3,< 10 nM,540 nM,210 nM,Active,73.96%,860 nM,Active,–
